Measurements: publication PMC3224213, “Bacterial membrane activity of α-peptide/β-peptoid chimeras: Influence of amino acid composition and chain length on the activity against different bacterial strains” (BMC Microbiology, 2011)

Columns and labels:
S. aureus [1] = test: ATP leakage bioluminescence assay; assay type: cell-based, Staphylococcus aureus; conditions: for intracellular ATP concentration: HEPES buffer pH 7.0, two independent experiments; for dose for the immediate maximum ATP release: 500 μg/mL expressed in μM; for minimum chimera dose for the maximum immediate ATP release: doses 100, 250, 500, 1000 μg/mL, immediate release only, data not shown
Protocol: (§1) Pore formation as caused by peptide addition was determined by measuring ATP leakage from the bacterial cell using a bioluminescence assay. The assay was used to estimate differences between sub-typical chimeras 1, 2 and 3 on S. aureus and S. marcescens and to evaluate the effect of chain length of mixed type chimeras 4a, 4b and 4c on S. aureus. In brief, bacteria were grown in TSB at 37°C for 24 hours and then re-inoculated in TSB at 37°C for 6-8 hours until an absorbance at 546 nm of 2.5 for S. aureus and 2.0 for S. marcescens and then harvested (10 min at 2,000 × g). The bacteria were grown to a high absorbance since a high concentration of bacteria was necessary in order to get a measurable response in the ATP leakage assay. Cells were washed once in 50 mM potassium phosphate buffer (pH 7.0) and once in 50 mM HEPES buffer (pH 7.0), before the pellet was resuspended in HEPES buffer to an OD546 ~ 10, and then stored on ice. Before chimera addition bacteria were pre-incubated with 0.2% (w/v) glucose to energize the cells. In general a chimera dose of 1000 μg/mL (corresponding to 280-552 μM for all chimeras) was used for all assays; however, for determining dose response curves additional doses of 100 (28-55 μM), 250 (71-137 μM) and 500 (140-276 μM) μg/mL were tested, and only the immediate release was noted. Total ATP and extracellular ATP were determined with a luminometer […]. Intracellular volumes of S. aureus and S. marcescens (0.85 μm^3 and 1.7 μm^3, respectively) were subtracted from the total volume before calculating the extracellular ATP concentration; the intracellular ATP concentration could then be calculated from this and the total ATP. ATP leakage kinetics was determined on a bacterial suspension prepared as above. Samples were taken at time 0, 5, 10, 20, 30 and 60 minutes and viable counts determined. Both the ATP leakage assay and killing kinetics performed under the same assay conditions were performed in two independent experiments.

S. marcescens [2] = test: Killing by chimera with or without EDTA pre-treatment; assay type: cell-based, Serratia marcescens
Source text: (§2) Although there was no systematic difference in the MIC values between Gram-positive and -negative bacteria, we speculated that the Gram-negative outer membrane could act as a barrier to the penetration of AMPs, since polymyxin B resistance in S. marcescens has been linked to induced changes in the amount and composition of lipopolysaccharide (LPS) in the outer membrane. Moreover, similar resistance-conferring membrane alterations have also been seen for other bacteria in response to polymyxin B treatment. Accordingly, we studied how a membrane-destabilizing pre-treatment of S. marcescens, E. coli and S. aureus with the divalent metal cation-chelating agent EDTA would affect the killing caused by chimera 1. In these experiments we used a non-lethal 0.5 mM concentration of EDTA together with the non-lethal 1.5 μM concentration of the tested AMP analogue. […] In contrast, cell numbers of both S. marcescens and E. coli were reduced with 4-5 log from an initial value of log ~5.5 within the first 4 hours (not shown) upon treatment with a sub-lethal EDTA concentration together with the chimera.

S. marcescens [3] = test: ATP leakage bioluminescence assay; assay type: cell-based, Serratia marcescens; conditions: 1000 μg/mL chimera
Protocol: as §1

S. aureus [4] = test: Killing by chimera with or without EDTA pre-treatment; assay type: cell-based, Staphylococcus aureus
Source text: as §2

E. coli = test: as above; assay type: cell-based, Escherichia coli
Source text: as §2

S. aureus 8325 = test: Killing kinetics (time-kill); assay type: cell-based, Staphylococcus aureus
Protocol: (§3) In vitro time-kill curves for chimera 1, 2 and 3 were determined against S. aureus 8325 (MIC μM: chimera 1 5.9; chimera 2 2.8; chimera 3 18.7) and Serratia marcescens ATCC 8100 (MIC μM: chimera 1 46.8; chimera 2 45.5; chimera 3 150.0). These two bacterial strains represent organisms susceptible and tolerant to the chimeras, respectively. The bactericidal effect of the three chimeras was tested at MIC in two independent experiments; additionally the effect of chimera 2 was tested at ¼ and 1/2 times MIC. In brief, a suspension prepared from fresh overnight colonies as described above was transferred to 2 mL PBS or cation-adjusted MHB with chimera added (from a 10 × MIC solution) to give a similar bacterial cell density as employed in the MIC determination; the resulting suspension was then incubated at 37°C, 300 rpm. Samples for colony determination were taken at 0, 1, 2, 4, 6 and 8 hours after addition and transferred to a ten-fold dilution row. Colony counts were determined after incubation for 24 hours at 37°C.

[5] = tested on: Serratia marcescens ATCC 8100; test: Killing kinetics (time-kill); assay type: cell-based; conditions: S. marcescens
Protocol: as §3

S. aureus [6] = test: Time-kill under the conditions of the ATP leakage assay; assay type: cell-based, Staphylococcus aureus; conditions: 1000 μg/mL chimera, same conditions as ATP assay, within the first 20 minutes, initial log ~9.5 per mL
Protocol: as §1

[7] = tested on: twelve food-borne and clinical bacterial strains; assay type: cell-based
Protocol: Initial activity experiments were carried out with twelve strains from seven bacterial species representing common laboratory strains and clinical strains derived from both food-borne and nosocomial infections (Table 1). Stock cultures were stored at -80°C in 4% (w/v) glycerol, 0.5% (w/v) glucose, 2% (w/v) skimmed milk powder and 3% (w/v) tryptone soy powder. All experiments were carried out with bacteria incubated for one night (i.e. approximately 18 hours) at 37°C. Experiments were performed in cation-adjusted Mueller Hinton II broth (MHB) (Becton Dickinson 212322) adjusted to pH 7.4 or Tryptone Soy Broth (TSB) (Oxoid CM0129) for the ATP leakage assays. Brain Heart Infusion (BHI) (CM1135) with agar (VWR 20768.292) 1.5% as gelling agent was used throughout for colony plating.
The Minimum Inhibitory Concentration (MIC) of the chimeras was determined against the spectrum of bacteria using the microdilution method according to guidelines of the Clinical and Laboratory Standards Institute (CLSI). Chimera 1:2 serial dilutions were prepared from 1,024 μg/mL stock solutions to give a final range of 512-0.5 μg/mL in the wells. This corresponds to a final range of 144 to 0.14 μM for the heaviest chimera (i.e. chimera 4c) and of 282 to 0.27 μM for the lightest chimera (i.e. chimera 4a). Colonies grown overnight (i.e. approximately 18 hours) on BHI agar were suspended in 0.9% saline to give a turbidity of 0.13 at OD546 (approximately 1 × 10^8 CFU/mL), and then diluted in MHB pH 7.4 to a final concentration of 5 × 10^5 CFU/mL in each well. Following CLSI guidelines the media for testing of Listeria monocytogenes strains were supplemented with 2.5% lysed horse blood. Polypropylene plates (Nunc 442587) were used to minimize peptide binding and incubation time was 18-20 hours at 37°C. MIC was determined in a minimum of two technical replicates as the lowest concentration of the peptide analogue where no visible growth was found. The Minimum Bactericidal Concentration (MBC) was determined by plating 10 μL of the suspension from the first three wells without growth on BHI agar and incubating these for 24 hours at 37°C. MBC was the lowest concentration at which a 99.9% reduction in CFU/mL was observed. Activity is expressed in μmol/L to enable a direct comparison of analogues with different length (= size).

[8] = 1.5 μM chimera alone, data not shown
[9] = 0.5 mM EDTA and 1.5 μM chimera, within the first 4 hours, initial log ~5.5, not shown
[10] = range over strains, summary of Table 2

Row | Compound | ATP leakage (in words) (S. aureus [1]; 1000 μg/mL chimera) | intracellular ATP concentration (S. aureus [1]; 1000 μg/mL chimera) | ATP leakage (in words) (S. marcescens [3]) | dose for the immediate maximum ATP release (S. aureus [1]) | immediate ATP release (S. aureus [1]; 1000 μg/mL chimera) | minimum chimera dose for the maximum immediate ATP release (S. aureus [1]) | reduction in number of viable cells (S. aureus [6]) | further results
1 | CC(=O)N[C@@H](CCCCNC(=N)N)C(=O)N(CCC(=O)N[C@@H](CCCCNC(=N)N)C(=O)N(CCC(=O)N[C@@H](CCCCNC(=N)N)C(=O)N(CCC(=O)N[C@@H](CCCCNC(=N)N)C(=O)N(CCC(=O)N[C@@H](CCCCNC(=N)N)C(=O)N(CCC(=O)N[C@@H](CCCCNC(=N)N)C(=O)N(CCC(N)=O)Cc1ccccc1)Cc1ccccc1)Cc1ccccc1)Cc1ccccc1)Cc1ccccc1)Cc1ccccc1 [Chimera 1] | caused leakage of ATP | rapidly approached zero | caused leakage of ATP |  |  |  |  | extracellular ATP concentration (S. aureus [1]; 1000 μg/mL chimera, during the first minutes, HEPES buffer pH 7.0, OD546 ~ 10, two independent experiments): ~ 20 μM; reduction in the number of viable cells, chimera alone (S. marcescens [2]; [8]): 1.5 log; reduction of cell numbers, EDTA together with chimera (S. marcescens [2]; [9]): 4-5 log; intracellular ATP concentration (S. marcescens [3]; HEPES buffer pH 7.0, two independent experiments): rapidly approached zero; extracellular ATP concentration (S. marcescens [3]; during the first minutes, HEPES buffer pH 7.0, OD546 ~ 10, two independent experiments): ~ 5 μM; reduction in the number of viable cells, chimera alone (S. aureus [4]; [8]): 0.5 log; viable cells, EDTA then chimera versus chimera only (S. aureus [4]; 0.5 mM EDTA and 1.5 μM chimera): No discernable difference; reduction in the number of viable cells, chimera alone (E. coli; [8]): 1.5 log; reduction of cell numbers, EDTA together with chimera (E. coli; [9]): 4-5 log
2 | CC(=O)N[C@@H](CCCCNC(=N)N)C(=O)N(CCC(=O)N[C@@H](CCCCNC(=N)N)C(=O)N(CCC(=O)N[C@@H](CCCCNC(=N)N)C(=O)N(CCC(=O)N[C@@H](CCCCNC(=N)N)C(=O)N(CCC(=O)N[C@@H](CCCCNC(=N)N)C(=O)N(CCC(=O)N[C@@H](CCCCNC(=N)N)C(=O)N(CCC(N)=O)[C@@H](C)c1ccccc1)[C@@H](C)c1ccccc1)[C@@H](C)c1ccccc1)[C@@H](C)c1ccccc1)[C@@H](C)c1ccccc1)[C@@H](C)c1ccccc1 [Chimera 2] | caused leakage of ATP |  | caused leakage of ATP |  |  |  |  | number of viable cells at MIC in MHB (S. aureus 8325; at MIC in MHB, 37°C, two independent experiments): did not decrease until after 6 hours; decrease in viable cell numbers (S. aureus 8325; at MIC in PBS, after 4 hours): 2 log; decrease in the number of viable bacteria ([5]; at MIC in MHB, within the first hour, 37°C, two independent experiments): 2 log; viable cells after treatment in PBS ([5]; at MIC in PBS, 37°C): no viable cells remained after the first hour; effect on cell number at ¼ MIC ([5]; ¼ MIC in MHB): reduction in cell number
3 | CC(=O)N[C@@H](CCCCN)C(=O)N(CCC(=O)N[C@@H](CCCCNC(=N)N)C(=O)N(CCC(=O)N[C@@H](CCCCN)C(=O)N(CCC(=O)N[C@@H](CCCCNC(=N)N)C(=O)N(CCC(N)=O)[C@@H](C)c1ccccc1)[C@@H](C)c1ccccc1)[C@@H](C)c1ccccc1)[C@@H](C)c1ccccc1 [Chimera 4a] |  | approx. 5 μM |  | 276 µM | approximately 15 μM | 500 µg/mL | no killing was observed | MIC values times higher than those of chimera 4c ([7]; ratio of MIC to that of chimera 4c, over the strains of Table 2): 15-70 times
4 | CC(=O)N[C@@H](CCCCN)C(=O)N(CCC(=O)N[C@@H](CCCCNC(=N)N)C(=O)N(CCC(=O)N[C@@H](CCCCN)C(=O)N(CCC(=O)N[C@@H](CCCCNC(=N)N)C(=O)N(CCC(=O)N[C@@H](CCCCN)C(=O)N(CCC(=O)N[C@@H](CCCCNC(=N)N)C(=O)N(CCC(N)=O)[C@@H](C)c1ccccc1)[C@@H](C)c1ccccc1)[C@@H](C)c1ccccc1)[C@@H](C)c1ccccc1)[C@@H](C)c1ccccc1)[C@@H](C)c1ccccc1 [Chimera 4b] | same leakage pattern as induced by chimera 4a |  |  |  |  |  | no killing was observed | 
5 | CC(=O)N[C@@H](CCCCN)C(=O)N(CCC(=O)N[C@@H](CCCCNC(=N)N)C(=O)N(CCC(=O)N[C@@H](CCCCN)C(=O)N(CCC(=O)N[C@@H](CCCCNC(=N)N)C(=O)N(CCC(=O)N[C@@H](CCCCN)C(=O)N(CCC(=O)N[C@@H](CCCCNC(=N)N)C(=O)N(CCC(=O)N[C@@H](CCCCN)C(=O)N(CCC(=O)N[C@@H](CCCCNC(=N)N)C(=O)N(CCC(N)=O)[C@@H](C)c1ccccc1)[C@@H](C)c1ccccc1)[C@@H](C)c1ccccc1)[C@@H](C)c1ccccc1)[C@@H](C)c1ccccc1)[C@@H](C)c1ccccc1)[C@@H](C)c1ccccc1)[C@@H](C)c1ccccc1 [Chimera 4c] |  | immediately depleted of intracellular ATP |  | 140 µM | approximately 15 μM | 500 µg/mL | 2 log | MIC values against the clinical strains of E. coli, S. aureus and K. pneumoniae [7, 10]: 2.2 to 9.0 µM; MIC values against the food-borne pathogens L. monocytogenes and Vibro spp. [7, 10]: 1.1 to 2.2 µM
